Measurements as given in PubChem BioAssay AID1963845 (Molecular Pharmacology Branch, DTP, NCI, 2024).
pIC50: −log10 of the molar value. “And” between values parts separate entries of the source, which are not always exact repeats. Equal entries are not always repeated.

System: 429239-143-T-J1-PDC complex spheroid viability
Assay: Anticancer human tumor 429239-143-T-J1-PDC patient-derived small cell lung carcinoma cell line growth inhibition [POLQ]
Details: for viability, T/C: stronger effect = lower value
Method: Multicellular complex tumor spheroid response to Polymerase (POL) inhibitors (novobiocin, ART-558, RP6685) in combination with a variety of drugs and investigational agents in selected tumor cell lines
The POL inhibitors (novobiocin, ART-558, and RP6685) were evaluated both individually and in combination with standard of care and investigational anticancer small molecules within a complex spheroid model of solid tumors. . Complex spheroids include a stromal component modeled by human endothelial cells (HUVEC) and fibroblasts modeled by human mesenchymal stem cells (MSCs). The concentration ranges selected for each drug and investigational agent were based upon clinically achievable concentrations if the clinical Cmax of the agent was known.
Compounds. The drugs and investigational agents: novobiocin (NSC847541), ART-558 (NSC835418), RP-6685 (NSC848927), peposertib (NSC802822), ceralasertib (NSC780249), elimusertib (NSC800525), camonsertib (NSC841442), AZD-1390 (NSC803789), olaparib (NSC753686), talazoparib (NSC767125), rucaparib (NSC756644), sotorasib (NSC818433), MRTX-1133 (NSC836407), SN-38 (NSC673596), topotecan (NSC609699), epotoside (NSC141540), doxorubicin (NSC123127), gemcitabine (NSC613327), 5-fluorouracil (NSC19893), paclitaxel (NSC125973), vemurafenib (NSC761431), MSA-2 (NSC828583), SN-011 (NSC837082), adavosertib (NSC754352), prexasertib (NSC758257), carboplatin (NSC241240) and oxaliplatin (NSC266046), were obtained from the National Cancer Institute (NCI) Developmental Therapeutics Program Chemical Repository (21). The FDA-approved anticancer drug set is available from the Developmental Therapeutics Program at https://dtp.cancer.gov/organization/dscb/obtaining/. […] The stock solutions were prepared in dimethyl sulfoxide (DMSO, Sigma-Aldrich, St. Louis, MO, cat. D2650), except for the platinum compounds which were prepared in saline (Quality Biological, Gaithersburg, MD, cat. 114-055-101), at 800-fold the tested concentration and stored at -70 degrees C prior to their use. All drugs and investigational agents were tested over a range starting from a high concentration at or near the clinical Cmax and decreasing in half-log increments. If the clinical Cmax for an agent had not been determined, the highest concentration tested was 10 microM, except for SN-38, which was tested at a high concentration of 1 microM.
Cell Culture. All cells were maintained in an incubator at 37 degrees C and 5% CO2 with 95% humidity. The PDC lines were cultured according to standard operating procedures established by the NCI PDMR (https://pdmr.cancer.gov). Table 3 of the manuscript, lists the cell lines along with the number of the three cell types plated to form the mct-spheroids and media for tumor cell growth. After thawing, all PDC lines, except 997537-175-T-J1-PDC and 415267-285-R-J2-PDC, were cultured in Matrigel-coated flasks prepared with a working solution of 1X Ham's F-12 nutrient mix, without supplementation (Thermo Fisher Scientific, cat. 11765054), 100 U/mL penicillin-streptomycin (Thermo Fisher Scientific, cat. 15140122), and 2.5% Matrigel (Corning Inc., Corning, NY, cat. 354248) for the first three passages. The two PDC lines 997537-175-T-J1-PDC and 415267-285-R-J2-PDC were cultured on uncoated flasks. The 857933-349-R-J2-PDC line was cultured in 6C/Colon 1B media containing advanced DMEM/F-12 (Thermo Fisher Scientific, cat. 12634028), 10 mM HEPES (Thermo Fisher Scientific, cat. 15630080), 1X GlutaMAX supplement (Thermo Fisher Scientific, cat. 35050061), 0.1 mg/mL primocin (InvivoGen, San Diego, CA, cat. ant-pm-2), 10% defined fetal bovine serum, heat inactivated (HyClone Laboratories Inc., Logan, UT, cat. SH30070.03HI), 50% L-WRN conditioned media (ATCC, cat. CRL-3276), 1.25 mM N-Acetyl-L-cysteine (Sigma-Aldrich, cat. A9165), 10 mM nicotinamide (Sigma-Aldrich, cat. N0636), 1X B-27 supplement (Thermo Fisher Scientific, cat. 17504044), 1X N-2 supplement (Thermo Fisher Scientific, cat. […]
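Also: luminescence signal used as surrogate measure of viable cells; spheroids exposed to compounds for seven days before readout.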
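For viability, T/C in this document: 100% = DMSO vehicle control viability as luminescence relative to vehicle.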

With CC1COCCN1c1cc(-c2ccnn2C)c2ccnc(-c3ccn[nH]3)c2n1 (stereo unspecified) the viability, T/C (compound 0.0316 µM) was 81.5% and 81.3% and 92.4%, the viability, T/C (compound 0.1 µM) was 50% and 45.1% and 76.5% and the viability, T/C (compound 0.316 µM) was 27.3% and 28.6% and 65.2%. The viability, T/C (compound 1 µM) was 13.1% and 16% and 35.1%, the viability, T/C (compound 3.16 µM) was 10.7% and 9.53% and 5.15% and the viability, T/C (compound 10 µM) was 10.5% and 9.86% and 3.76%. For the same compound, the pIC50 (curve of compound) was 6.99 and 7.05 and 6.28.

CNCc1ccc(-c2[nH]c3cc(F)cc4c3c2CCNC4=O)cc1 + COC1C(OC(N)=O)C(O)C(Oc2ccc3c(O)c(NC(=O)c4ccc(O)c(CC=C(C)C)c4)c(=O)oc3c2C)OC1(C)C gave a pIC50 (curve of first compound, second compound 0.0316 µM) of 5.64, a pIC50 (curve of first compound, second compound 0.1 µM) of 5.62 and a pIC50 (curve of first compound, second compound 0.316 µM) of 5.59. The pIC50 (curve of first compound, second compound 1 µM) was 5.57, the pIC50 (curve of first compound, second compound 3.16 µM) was 5.74 and the pIC50 (curve of first compound, second compound 10 µM) was 5.80. The viability, T/C (second compound 0.0316 µM, first compound 0.0316 µM) was 95.1%, the viability, T/C (second compound 0.0316 µM, first compound 0.1 µM) was 75% and the viability, T/C (second compound 0.0316 µM, first compound 0.316 µM) was 87.1%. The viability, T/C (second compound 0.0316 µM, first compound 1 µM) was 66.5%, the viability, T/C (second compound 0.0316 µM, first compound 3.16 µM) was 43.2% and the viability, T/C (second compound 0.0316 µM, first compound 10 µM) was 23.2%. For the same compound, the viability, T/C (second compound 0.1 µM, first compound 0.0316 µM) was 85.5%, the viability, T/C (second compound 0.1 µM, first compound 0.1 µM) was 101% and the viability, T/C (second compound 0.1 µM, first compound 0.316 µM) was 80.6%. It also gave a viability, T/C (second compound 0.1 µM, first compound 1 µM) of 65.9%, a viability, T/C (second compound 0.1 µM, first compound 3.16 µM) of 46.3% and a viability, T/C (second compound 0.1 µM, first compound 10 µM) of 21.4%. The viability, T/C (second compound 0.316 µM, first compound 0.0316 µM) was 102%, the viability, T/C (second compound 0.316 µM, first compound 0.1 µM) was 85.5% and the viability, T/C (second compound 0.316 µM, first compound 0.316 µM) was 74.5%. It also gave a viability, T/C (second compound 0.316 µM, first compound 1 µM) of 69.6%, a viability, T/C (second compound 0.316 µM, first compound 3.16 µM) of 49.3% and a viability, T/C (second compound 0.316 µM, first compound 10 µM) of 21.4%. For the same compound, the viability, T/C (second compound 1 µM, first compound 0.0316 µM) was 87.5%, the viability, T/C (second compound 1 µM, first compound 0.1 µM) was 86.9% and the viability, T/C (second compound 1 µM, first compound 0.316 µM) was 79.3%. It also gave a viability, T/C (second compound 1 µM, first compound 1 µM) of 72.6%, a viability, T/C (second compound 1 µM, first compound 3.16 µM) of 46% and a viability, T/C (second compound 1 µM, first compound 10 µM) of 19.7%. It also gave a viability, T/C (second compound 3.16 µM, first compound 0.0316 µM) of 87.4%, a viability, T/C (second compound 3.16 µM, first compound 0.1 µM) of 88.3% and a viability, T/C (second compound 3.16 µM, first compound 0.316 µM) of 87.1%. For the same compound, the viability, T/C (second compound 3.16 µM, first compound 1 µM) was 59.8%, the viability, T/C (second compound 3.16 µM, first compound 3.16 µM) was 40.3% and the viability, T/C (second compound 3.16 µM, first compound 10 µM) was 20%. For the same compound, the viability, T/C (second compound 10 µM, first compound 0.0316 µM) was 75.3%, the viability, T/C (second compound 10 µM, first compound 0.1 µM) was 81.3% and the viability, T/C (second compound 10 µM, first compound 0.316 µM) was 72.2%. For the same compound, the viability, T/C (second compound 10 µM, first compound 1 µM) was 55.1%, the viability, T/C (second compound 10 µM, first compound 3.16 µM) was 39.8% and the viability, T/C (second compound 10 µM, first compound 10 µM) was 19%.

In the case of C#Cc1c(F)ccc2cc(O)cc(-c3ncc4c(N5CC6CCC(C5)N6)nc(OCC56CCCN5CC(F)C6)nc4c3F)c12 (stereo unspecified), the viability, T/C (compound 0.0316 µM) was 92.4% and 94.3% and 101%, the viability, T/C (compound 0.1 µM) was 91.3% and 103% and 102% and the viability, T/C (compound 0.316 µM) was 114% and 102% and 96%. The viability, T/C (compound 1 µM) was 99% and 112% and 102%, the viability, T/C (compound 3.16 µM) was 102% and 97.4% and 98.6% and the viability, T/C (compound 10 µM) was 84.1% and 91.3% and 103%. For the same compound, the pIC50 (curve of compound) was < 5.00.

With CC(C)n1c(=O)n(C)c2cnc3cc(F)c(-c4ccc(OCCCN5CCCCC5)nc4)cc3c21 the viability, T/C (compound 0.0316 µM) was 99.4% and 102% and 100%, the viability, T/C (compound 0.1 µM) was 94.7% and 101% (2×) and the viability, T/C (compound 0.316 µM) was 102% and 94.4% and 86.6%. The viability, T/C (compound 1 µM) was 89.1% and 102% and 95.7%, the viability, T/C (compound 3.16 µM) was 91.2% and 99.8% and 90.1% and the viability, T/C (compound 10 µM) was 60.3% and 99.5% and 74.6%. The pIC50 (curve of compound) was < 5.00.

COc1ccc([C@@H](O)c2cc(-c3ncnc4cc(N5CCOCC5)ccc34)c(F)cc2Cl)nn1 was tested, and the viability, T/C (compound 0.0316 µM) was 94.3% and 105% and 106%, the viability, T/C (compound 0.1 µM) was 96% and 95.6% and 99.2% and the viability, T/C (compound 0.316 µM) was 93.8% and 92.8% and 87.8%. For the same compound, the viability, T/C (compound 1 µM) was 87.6% and 96.2% and 92.5%, the viability, T/C (compound 3.16 µM) was 55.4% and 93.5% and 53.1% and the pIC50 (curve of compound) was 5.44 and 5.00 and 5.45.

For COc1cccc(OCCCN)c1-c1cc(Nc2cnc(C#N)cn2)n[nH]1, the viability, T/C (compound 0.00316 µM) was 92% and 99.1% and 90.2%, the viability, T/C (compound 0.01 µM) was 79.7% and 103% and 100% and the viability, T/C (compound 0.0316 µM) was 82.9% and 83.9% and 89.2%. For the same compound, the viability, T/C (compound 0.1 µM) was 39.7% and 73.7% and 77.4%, the viability, T/C (compound 0.316 µM) was 31% and 56.7% and 51.6% and the viability, T/C (compound 1 µM) was 23% and 27% and 41.3%. For the same compound, the pIC50 (curve of compound) was 7.12 and 6.41 and 6.42.
